Measured values taken from patent US10681909B2, “Herbicidal triazoles” (FMC Corporation, priority 2014, dated 2020).

Key:
Test in all cases: Test E preemergence
Conditions in all cases: scale 0 to 100
[1] = tested on: beggarticks; format: in vivo, Bidens pilosa
Source text: (§1) Seeds of plant species selected from corn (Zea mays), soybean (Glycine max), lambsquarters (Chenopodium album), poinsettia, wild (wild poinsettia, Euphorbia heterophylla), pigweed, palmer (palmer pigweed, Amaranthus palmeri), waterhemp (common waterhemp, Amaranthus rudis), surinam grass (Brachiaria decumbens), crabgrass, large (large crabgrass, Digitaria sanguinalis), crabgrass, Brazilian (Brazilian crabgrass, Digitaria horizontalis), panicum, fall (fall panicum, Panicum dichotomiflorum), foxtail, giant (giant foxtail, Setaria faberii), foxtail, green (green foxtail, Setaria viridis), goosegrass (Eleusine indica), johnsongrass (Sorghum halepense), ragweed (common ragweed, Ambrosia elatior), barnyardgrass (Echinochloa crus-galli), sandbur (southern sandbur, Cenchrus echinatus), arrowleaf sida (Sida rhombifolia), ryegrass, Italian (Italian ryegrass, Lolium multiflorum), dayflower, VA (Virginia dayflower, Commelina virginica), field bindweed (Convolvulus arvensis), cocklebur (common cocklebur, Xanthium strumarium), morningglory (Ipomoea coccinea), nightshade (eastern black nightshade, Solanum ptycanthum), kochia (Kochia scoparia), nutsedge, yellow (yellow nutsedge, Cyperus esculentus), smartweed (ladysthumb smartweed, Polygonum persicaria), velvetleaf (Abutilon theophrasti), horseweed (Conyza canadensis), and beggarticks (hairy beggarticks, Bidens pilosa), were planted into a silt loam soil and treated preemergence with test chemicals formulated in a non-phytotoxic solvent mixture which included a surfactant.
(§2) At the same time, plants from these crop and weed species and also waterhemp_RES1, (ALS & Triazine resistant common waterhemp, Amaranthus rudis), and waterhemp_RES2, (ALS & HPPD resistant common waterhemp, Amaranthus rudis) were planted in pots containing Sunshine Redi-Earth® planting medium comprising spaghnum peat moss, vermiculite, starter nutrients and dolomitic limestone were treated with postemergence applications of test chemicals formulated in the same manner. Plants ranged in height from 2 to 18 cm for postemergence treatments (1- to 4-leaf stage). Treated plants and controls were maintained in a greenhouse for 14 to 21 d, after which time all species were compared to controls and visually evaluated. Plant response ratings, summarized in Table E, are based on a scale of 0 to 100 where 0 is no effect and 100 is complete control. A dash (-) response means no test result.

[2] = tested on: foxtail, giant; format: in vivo, Setaria faberii
Source text: as §1, §2

[3] = tested on: pigweed, palmer; format: in vivo, Amaranthus palmeri
Source text: as §1, §2

[4] = tested on: poinsettia, wild; format: in vivo, Euphorbia heterophylla
Source text: as §1, §2

[5] = tested on: foxtail, green; format: in vivo, Setaria viridis
Source text: as §1, §2

[6] = tested on: dayflower, VA; format: in vivo, Commelina virginica
Source text: as §1, §2

[7] = tested on: surinam grass; format: in vivo, Brachiaria decumbens
Source text: as §1, §2

[8] = tested on: barnyardgrass; format: in vivo, Echinochloa crus-galli
Source text: as §1, §2

[9] = tested on: nutsedge, yellow; format: in vivo, Cyperus esculentus
Source text: as §1, §2

[10] = tested on: smartweed; format: in vivo, Polygonum persicaria
Source text: as §1, §2

[11] = tested on: cocklebur; format: in vivo, Xanthium strumarium
Source text: as §1, §2

With `CCCc1nc(-c2ccc(F)cc2)nn1Cc1ccnc(C(F)(F)F)c1` [Compound 6, 4-[[3-(4-fluorophenyl)-5-propyl-1H-1,2,4-triazol-1-yl]methyl]-2-(trifluoromethyl)pyridine] the Plant response rating ([1]; 16 g ai/ha) was 0, the Plant response rating ([1]; 31 g ai/ha) was 0 and the Plant response rating ([1]; 62 g ai/ha) was 0. The Plant response rating ([1]; 125 g ai/ha) was 20, the Plant response rating ([1]; 250 g ai/ha) was 70 and the Plant response rating ([2]; 16 g ai/ha) was 50. For the same compound, the Plant response rating ([2]; 62 g ai/ha) was 60, the Plant response rating ([2]; 125 g ai/ha) was 95 and the Plant response rating ([2]; 250 g ai/ha) was 100. The Plant response rating ([3]; 16 g ai/ha) was 50, the Plant response rating ([3]; 31 g ai/ha) was 75 and the Plant response rating ([3]; 62 g ai/ha) was 90. The Plant response rating ([3]; 125 g ai/ha) was 100, the Plant response rating ([3]; 250 g ai/ha) was 100 and the Plant response rating ([4]; 16 g ai/ha) was 15. It also gave a Plant response rating ([4]; 31 g ai/ha) of 30, a Plant response rating ([4]; 62 g ai/ha) of 50 and a Plant response rating ([4]; 125 g ai/ha) of 50. It also gave a Plant response rating ([4]; 250 g ai/ha) of 95, a Plant response rating ([5]; 62 g ai/ha) of 70 and a Plant response rating ([5]; 125 g ai/ha) of 80. The Plant response rating ([5]; 250 g ai/ha) was 100, the Plant response rating ([6]; 16 g ai/ha) was 10 and the Plant response rating ([6]; 31 g ai/ha) was 60. For the same compound, the Plant response rating ([6]; 62 g ai/ha) was 70, the Plant response rating ([6]; 125 g ai/ha) was 80 and the Plant response rating ([6]; 250 g ai/ha) was 90. It also gave a Plant response rating ([7]; 16 g ai/ha) of 20, a Plant response rating ([7]; 31 g ai/ha) of 40 and a Plant response rating ([7]; 62 g ai/ha) of 40. It also gave a Plant response rating ([7]; 125 g ai/ha) of 50, a Plant response rating ([7]; 250 g ai/ha) of 50 and a Plant response rating ([8]; 16 g ai/ha) of 10. For the same compound, the Plant response rating ([8]; 31 g ai/ha) was 40, the Plant response rating ([8]; 62 g ai/ha) was 50 and the Plant response rating ([8]; 125 g ai/ha) was 60. For the same compound, the Plant response rating ([8]; 250 g ai/ha) was 75, the Plant response rating ([9]; 16 g ai/ha) was 0 and the Plant response rating ([9]; 31 g ai/ha) was 0. For the same compound, the Plant response rating ([9]; 62 g ai/ha) was 15, the Plant response rating ([9]; 125 g ai/ha) was 30 and the Plant response rating ([9]; 250 g ai/ha) was 40. The Plant response rating ([10]; 16 g ai/ha) was 20, the Plant response rating ([10]; 31 g ai/ha) was 50 and the Plant response rating ([10]; 62 g ai/ha) was 60. The Plant response rating ([10]; 125 g ai/ha) was 95, the Plant response rating ([10]; 250 g ai/ha) was 95 and the Plant response rating ([11]; 16 g ai/ha) was 0. For the same compound, the Plant response rating ([11]; 31 g ai/ha) was 0, the Plant response rating ([11]; 62 g ai/ha) was 0 and the Plant response rating ([11]; 250 g ai/ha) was 10.
`CCOc1nc(-c2ccc(F)cc2)nn1Cc1ccnc(C(F)(F)F)c1` [Compound 8, 4-[[5-ethoxy-3-(4-fluorophenyl)-1H-1,2,4-triazol-1-yl]methyl]-2-(trifluoromethyl)pyridine] was tested, and the Plant response rating ([1]; 62 g ai/ha) was 20, the Plant response rating ([1]; 125 g ai/ha) was 20 and the Plant response rating ([2]; 62 g ai/ha) was 100. The Plant response rating ([2]; 125 g ai/ha) was 100, the Plant response rating ([3]; 62 g ai/ha) was 100 and the Plant response rating ([3]; 125 g ai/ha) was 100. It also gave a Plant response rating ([4]; 62 g ai/ha) of 70, a Plant response rating ([4]; 125 g ai/ha) of 95 and a Plant response rating ([5]; 62 g ai/ha) of 100. It also gave a Plant response rating ([5]; 125 g ai/ha) of 100, a Plant response rating ([6]; 62 g ai/ha) of 65 and a Plant response rating ([6]; 125 g ai/ha) of 95. The Plant response rating ([7]; 62 g ai/ha) was 50, the Plant response rating ([7]; 125 g ai/ha) was 75 and the Plant response rating ([8]; 62 g ai/ha) was 75. For the same compound, the Plant response rating ([8]; 125 g ai/ha) was 95, the Plant response rating ([9]; 62 g ai/ha) was 25 and the Plant response rating ([9]; 125 g ai/ha) was 35.
